Converted amounts (≈) assume the structure as drawn.
What was measured:
[1] = tested on: CAL-27; experiment: cells; assay type: functional, cell-based; details: Homo sapiens, CAL-27, 72 h
[2] = tested on: SCC-9; experiment: cells; assay type: functional, cell-based; details: Homo sapiens, SCC-9, 72 h
[3] = Stability in mouse blood assessed as compound recovery measured at 25 degC for 4 hrs
[4] = Stability in mouse blood assessed as compound remaining measured at 20 degC for 8 hrs
[5] = Stability in mouse blood assessed as compound remaining measured at - 80 degC for 4 months
[6] = Half life in C57BL/6 mouse at 500 mg/kg, iv administered as Antitumor B; details: in vivo
[7] = Volume of distribution in C57BL/6 mouse at 500 mg/kg, iv administered as Antitumor B; details: in vivo
[8] = Clearance in C57BL/6 mouse at 500 mg/kg, iv administered as Antitumor B; details: in vivo
[9] = Half life in C57BL/6 mouse at 500 mg/kg, po; details: in vivo
[10] = Half life in C57BL/6 mouse at 4000 mg/kg, po; details: in vivo
[11] = Half life in C57BL/6 mouse at 500 mg/kg, ip qd measured after 7 days; details: in vivo, 168 h
[12] = mouse, in vivo, iv, 500 mg/kg
[13] = in vivo, po, 500 mg/kg, 24 h
[14] = in vivo, po, 4000 mg/kg, 24 h
[15] = in vivo, ip, 500 mg/kg, 24 h
[16] = C57BL/6, mouse, in vivo, ip, 500 mg/kg, 168 h
[17] = in vivo, ip, 500 mg/kg, 24 h; remark: listed apart in the source
[18] = in vivo, ip, 500 mg/kg, 168 h
[19] = in vivo, ip, 500 mg/kg, 168 h; remark: listed apart in the source
[20] = in vivo; details: C57BL/6, mouse, iv, 500 mg/kg
[21] = in vivo; details: C57BL/6, mouse, iv, 500 mg/kg; remark: listed apart in the source
[22] = in vivo; details: C57BL/6, mouse, po, 500 mg/kg
[23] = in vivo; details: C57BL/6, mouse, po, 500 mg/kg; remark: listed apart in the source
[24] = in vivo; details: C57BL/6, mouse, po, 500 mg/kg; remark: listed apart in the source
[25] = in vivo; details: C57BL/6, mouse, po, 500 mg/kg; remark: listed apart in the source
[26] = in vivo; details: C57BL/6, mouse, po, 4000 mg/kg
[27] = in vivo; details: C57BL/6, mouse, po, 4000 mg/kg; remark: listed apart in the source
[28] = in vivo; details: C57BL/6, mouse, po, 4000 mg/kg; remark: listed apart in the source
[29] = in vivo; details: C57BL/6, mouse, po, 4000 mg/kg; remark: listed apart in the source
[30] = in vivo; details: C57BL/6, mouse, ip, 500 mg/kg
[31] = in vivo; details: C57BL/6, mouse, ip, 500 mg/kg; remark: listed apart in the source
[32] = in vivo; details: C57BL/6, mouse, ip, 500 mg/kg; remark: listed apart in the source
[33] = in vivo; details: C57BL/6, mouse, ip, 500 mg/kg; remark: listed apart in the source
[34] = mouse, in vivo, iv, 500 mg/kg, 24 h
[35] = mouse, in vivo, po, 500 mg/kg

Row | SMILES | IC50 [1] | IC50 [2] | remaining at 4 h [3] | remaining at 8 h [4] | remaining at 2920 h [5] | half-life [6] | Vd [7] | half-life [10] | AUC [12] | Cmax [20] | MRT last [21] | Tmax [22] | Cmax [23] | Tmax [26] | Cmax [27] | MRT last [29] | AUC at 24 h [30] | AUC at 168 h [31] | MRT at 24 h [32] | MRT at 168 h [33] | other results
1 | O=C1CCC[C@@H]2[C@H]3CCCN4CCC[C@@H](CN12)[C@@H]34 [MATRINE] | 21 µg/mL (≈ 84.6 µM) | > 100 µg/mL | 85% | 85% | 85% | 7.5 h | 9.1 L/kg | 7.5 h | 5170.7 ng·h/mL | 3930 ng/mL | 1.8 h | 0.4 h | 53.8 ng/mL | 0.7 h | 709 ng/mL | 4.5 h | 1480 ng·h/mL | 1650 ng·h/mL | 5.3 h | 8 h | CL ([8]; C57BL/6, mouse): 13 mL/min/kg; half-life [9]: 3.8 h; t1/2 ([11]; C57BL/6, mouse): 8.2 h; AUC ([13]; C57BL/6, mouse): 120.5 ng·h/mL; AUC ([14]; C57BL/6, mouse): 3667.7 ng·h/mL; Tmax ([15]; C57BL/6, mouse): 0.2 h; Tmax [16]: 0.5 h; Cmax ([17]; C57BL/6, mouse): 815.9 ng/mL; Cmax ([18]; C57BL/6, mouse): 551.8 ng/mL; AUC ([19]; C57BL/6, mouse): 2254 ng·h/mL; AUC(0-inf) [24]: 124 ng·h/mL; MRT last [25]: 3.6 h; AUC(0-inf) [28]: 5370 ng·h/mL
2 | Oc1ccc2c(c1)OCC1c3cc4c(cc3OC21)OCO4 (configuration not stated) | 11.5 µg/mL (≈ 40.5 µM) | 94.9 µg/mL (≈ 334 µM) | 85% | 85% | 85% | 4.9 h | 4.1 L/kg | 3.5 h | 71.5 ng·h/mL | 67.5 ng/mL | 3 h | 0.6 h | 0.5 ng/mL | 0.7 h | 16.4 ng/mL | 3.6 h | 5.6 ng·h/mL | 47.4 ng·h/mL | 0.3 h | 8.4 h | CL ([8]; mouse): 10 mL/min/kg; t1/2 ([11]; mouse): 2.2 h; AUC [34]: 68.9 ng·h/mL; F [35]: 4.6%; AUC ([13]; mouse): 0.4 ng·h/mL; AUC ([14]; mouse): 25.5 ng·h/mL; Tmax ([15]; mouse): 0.2 h; Cmax ([17]; mouse): 15.6 ng/mL; Cmax ([18]; mouse): 17.2 ng/mL; AUC ([19]; mouse): 51.8 ng·h/mL; MRT last [25]: 0.6 h; AUC(0-inf) [28]: 27.5 ng·h/mL
3 | CC1=C2C(=O)O[C@@H](c3ccoc3)[C@]2(C)CCC1 [FRAXINELLONE] | 22.4 µg/mL (≈ 96.4 µM) | 43.4 µg/mL (≈ 187 µM) | 85% | 85% | 85% | 5.2 h | 2.9 L/kg |  | 166.8 ng·h/mL | 34.3 ng/mL | 3.2 h |  |  | 0.5 h | 4.7 ng/mL | 0.4 h | 2.7 ng·h/mL |  | 0.6 h |  | CL ([8]; mouse): 6.7 mL/min/kg; AUC [34]: 95.2 ng·h/mL; F [35]: 0.2%; AUC ([14]; mouse): 1.1 ng·h/mL; Cmax ([17]; mouse): 4.1 ng/mL
4 | COc1c2ccccc2nc2occc12 [DICTAMNINE] | 19.7 µg/mL (≈ 98.9 µM) | 27.8 µg/mL (≈ 140 µM) | 85% | 85% | 85% |  | 0.6 L/kg |  |  |  |  |  |  |  |  |  | 1 ng·h/mL | 23.2 ng·h/mL | 0.4 h | 11.7 h | 
5 | O=c1[nH]cc(F)c(=O)[nH]1 [FLUOROURACIL] | 0.5 µg/mL (≈ 3.84 µM) | 12.7 µg/mL (≈ 97.6 µM) |  |  |  |  |  |  |  |  |  |  |  |  |  |  |  |  |  |  | 

Reference: ChEMBL document CHEMBL5036337 (J Nat Prod, 2021)
